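Results reflect a 48-hour exposure of cells in 96-well plates to compound at five concentrations. TGI is the concentration that stops growth completely.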
Tests used:
Test in all cases: inhibition of tumour cell growth, NCI panel, 48 h
HT29 colon = tested on: HT29 colon
SK-MEL-28 melanoma = tested on: SK-MEL-28 melanoma
LOX IMVI melanoma = tested on: LOX IMVI melanoma
SK-MEL-2 melanoma = tested on: SK-MEL-2 melanoma
MCF7 breast = tested on: MCF7 breast
M14 melanoma = tested on: M14 melanoma
DU-145 prostate = tested on: DU-145 prostate
CAKI-1 renal = tested on: CAKI-1 renal
COLO 205 colon = tested on: COLO 205 colon
SK-MEL-5 melanoma = tested on: SK-MEL-5 melanoma
UACC-257 melanoma = tested on: UACC-257 melanoma
SN12C renal = tested on: SN12C renal
BT-549 breast = tested on: BT-549 breast
PC-3 prostate = tested on: PC-3 prostate
TK-10 renal = tested on: TK-10 renal
NCI-H460 lung = tested on: NCI-H460 lung
HS 578T breast = tested on: HS 578T breast
RPMI-8226 leukemia = tested on: RPMI-8226 leukemia
HCC-2998 colon = tested on: HCC-2998 colon

| Compound | TGI (HT29 colon) | TGI (SK-MEL-28 melanoma) | TGI (LOX IMVI melanoma) | TGI (SK-MEL-2 melanoma) | TGI (MCF7 breast) | TGI (M14 melanoma) | TGI (DU-145 prostate) | TGI (CAKI-1 renal) | TGI (COLO 205 colon) | TGI (SK-MEL-5 melanoma) | TGI (UACC-257 melanoma) | TGI (SN12C renal) | TGI (BT-549 breast) | TGI (PC-3 prostate) | TGI (TK-10 renal) | TGI (NCI-H460 lung) | TGI (HS 578T breast) | TGI (RPMI-8226 leukemia) | TGI (HCC-2998 colon) |
| --- | --- | --- | --- | --- | --- | --- | --- | --- | --- | --- | --- | --- | --- | --- | --- | --- | --- | --- | --- |
| C1=C2C3=[N+](CCCC3)CC2Cc2sccc21 (stereo unspecified) | > 100 µM | > 100 µM | > 100 µM | > 100 µM | > 100 µM | > 100 µM | > 100 µM | > 100 µM | > 100 µM | > 100 µM | > 100 µM | > 100 µM | > 100 µM | > 100 µM | > 100 µM | > 100 µM | > 100 µM |  |  |
| Nc1nncc2n[nH]nc12 | > 100 µM | > 100 µM |  | > 100 µM | > 100 µM | > 100 µM | > 100 µM | > 100 µM | > 100 µM | 30.7 µM | > 100 µM | > 100 µM | > 100 µM | > 100 µM | > 100 µM | > 100 µM | > 100 µM | > 100 µM |  |
| COc1ccc(C/C=C(\C)CCO)cc1 | > 100 µM |  | > 100 µM | > 100 µM | > 100 µM | > 100 µM | > 100 µM | 94.3 µM | > 100 µM | > 100 µM | > 100 µM | > 100 µM | > 100 µM | > 100 µM | > 100 µM | > 100 µM | > 100 µM | 89.8 µM |  |
| O=C(O)CN1CCN2CCCCCCCCN(CC1)CCN(CC(=O)O)CC2 | > 100 µM | > 100 µM | > 100 µM | > 100 µM | > 100 µM | > 100 µM | > 100 µM | > 100 µM | > 100 µM | > 100 µM | > 100 µM | > 100 µM | > 100 µM | > 100 µM | > 100 µM | > 100 µM | > 100 µM | > 100 µM |  |
| C/C1=C\[C@@H](C)C[C@@H](C)OC(=O)[C@@H](C)NC(=O)[C@H](Cc2ccc(O)c(Br)c2)N(C)C(=O)CNC(=O)[C@H](C)C1 | > 100 µM | 17.3 µM | < 0.01 µM | 25.6 µM | > 100 µM | > 100 µM | > 100 µM |  | > 100 µM | > 52.8 µM | 27.2 µM | > 100 µM | 2.16 µM | 5.04 µM | 0.26 µM | > 69.1 µM | 0.69 µM | 56.1 µM | 70.1 µM |
| COc1ccc(/C(=N/OCCCC(=O)O)c2cccs2)cc1 | > 100 µM |  | > 100 µM | > 100 µM | > 100 µM |  | > 100 µM | > 100 µM | > 100 µM | > 100 µM | > 100 µM | > 100 µM | > 100 µM | > 100 µM | > 100 µM | > 100 µM | > 100 µM | > 100 µM | > 100 µM |
| C[C@H](CCC(=O)O)[C@H]1CC[C@H]2[C@@H]3[C@H](O)[C@H](O)[C@@H]4C[C@H](O)CC[C@]4(C)[C@H]3CC[C@]12C | > 100 µM | > 100 µM | > 100 µM | > 100 µM | > 100 µM | > 100 µM | > 100 µM | > 100 µM | > 100 µM |  | > 100 µM | > 100 µM | > 100 µM | > 100 µM | > 100 µM | > 100 µM | > 100 µM | > 100 µM | > 100 µM |
| CC(C)CC(C#CCCOC(=O)c1ccccc1)OC(=O)c1ccccc1 (stereo unspecified) | > 10 µM | > 10 µM | > 10 µM | > 10 µM | > 10 µM | > 10 µM | > 10 µM |  |  | > 10 µM | > 10 µM | > 10 µM | > 10 µM | > 10 µM | > 10 µM | > 10 µM | > 10 µM |  | > 10 µM |
| Cc1cn(CCCCOC(=O)NC(CCCN=C(N)N)C(=O)O)c(=O)[nH]c1=O (stereo unspecified) | > 100 µM | > 100 µM | > 100 µM | > 100 µM | > 100 µM | > 100 µM | > 100 µM | > 100 µM | > 100 µM |  | > 100 µM | > 100 µM | > 100 µM | > 100 µM | > 100 µM | > 100 µM | > 100 µM | > 100 µM | > 100 µM |
| O=C1/C(=C/c2ccc([N+](=O)[O-])cc2)CCCc2ccccc21 | > 100 µM | > 100 µM | > 100 µM | > 100 µM | > 100 µM | > 100 µM | > 100 µM | > 100 µM | > 100 µM |  | > 100 µM | > 100 µM | > 100 µM | > 100 µM | > 100 µM | > 100 µM | 75.9 µM | > 100 µM | > 100 µM |
| C=CC(=C)CCC(Br)C(C)(C)Br (stereo unspecified) | > 100 µM | > 100 µM |  | > 100 µM | > 100 µM | > 100 µM | > 100 µM |  | > 100 µM | > 100 µM | > 100 µM | > 100 µM | > 100 µM | > 100 µM | > 100 µM | > 100 µM | > 100 µM | > 100 µM | > 100 µM |
| CC1(C)CC[C@]2(C)[C@@H](O)C[C@]3(C)C(=CC[C@@H]4[C@@]5(C)CC[C@H](O)C(C)(C)[C@@H]5CC[C@]43C)[C@@H]2C1 | > 100 µM | > 100 µM | 46.1 µM | 80.7 µM | > 100 µM | > 100 µM | > 100 µM | > 100 µM | > 100 µM | > 100 µM | > 100 µM | > 100 µM | > 100 µM | > 100 µM | 93.2 µM | > 100 µM | 99.3 µM |  |  |
| COc1ccc(CC2Cc3ccccc3CC(=O)N2)cc1OC (stereo unspecified) | > 100 µM | > 100 µM | > 100 µM | > 100 µM | > 100 µM | > 100 µM | > 100 µM | > 100 µM | > 100 µM | 54.1 µM | > 100 µM | > 100 µM | > 100 µM | > 100 µM | > 100 µM | > 100 µM | > 100 µM |  | > 100 µM |

— PubChem BioAssay (NCI)
